Data reported in patent US11897862B2 (Gilead Sciences, Inc., priority 2022, dated 2024).

Key:
Assay type in all cases: cell-based
[1] = molecular target: T1, SALL4 (Homo sapiens, UniProt Q96SW2+Q9UJQ4); test: HEK293 HiBiT in vitro degradation of SALL4; conditions: for DC50: 18-24 hr incubation, normalized to DMSO control, read-out: SALL4 EC50
T1 construct: expressed in transfected cells
Experimental: In vitro degradation of IKZF1, IKZF2, and SALL4 was measured using HiBiT protein tagging and detection technology (Promega).
HiBit technology was used to develop the quantitative assays to measure the cellular IKZFs level by tagging an 11 amino acid HiBit peptides […] to the protein of interest. Reporter plasmids were generated by fusing a linker sequence ([…]) followed by the HiBit tag at the C-terminus of IKZF1, IKZF2, and SALL4. The fusion fragments were subsequently cloned into pcDNA5 pcDNA™5/FRT/TO plasmids (Thermo Fisher, cat #V652020) downstream of the tetracycline operator. The resulting plasmids were co-transfected with pOG44 Flp-Recombinase Expression Vector (Thermo Fisher, cat #V600520) into Flp-In™ T-REx HEK293 line (Thermo Fisher, cat #R78077) and a stable cell pool was selected by adding 100 µg/ml of Hygromycin (Thermo Fisher, cat #10687010). The reporter cell enabled Tet-On inducible reporter expression from a single copy of the integrated gene.
On Day 1, Cells were grown to ˜80% confluency in tissue culture medium (DMEM Glutamax (Gibco10569), 10% Tet free FBS (Takara 631106), and PenStrep Glutamin (Gibco 10378)) in tissue culture flasks. Doxycycline was then added to a final concentration of […] to induce reporter expression at 37° C. overnight.
On Day 2, 125 nL of serially-diluted solution of testing compounds were dispensed into 384-well white solid assay plates via ECHO acoustic liquid handler. Cells were lifted by 0.25% Trypsin (Gibco 25200) then pelleted by centrifugation (Beckman Avanti J-E) at 500×g for 5 min. Cell pellets were resuspended in TC medium at the concentration of 3e5/mL and 25 μL of cell suspension were added into each well of compound-spotted plates. The plates were returned to a 37° C. incubator overnight (18-24 hr).
On Day 3, assay plates were removed from the tissue culture incubator and 25 μL of Nano-Glo lytic detection system (Promega, cat #N3030) was added to each well. Plates were incubated at r.t. for 3 min with shaking, and luminescence was read using an Envision reader (Perkin Elmer).
To assess the IKZF1, IKZF2, and SALL4 degrader potential of exemplified compounds of this disclosure and certain Reference Compounds EC50 and Dmax values were determined for the compounds of Examples 1 to 383 and Reference Compounds A-1, B-1, B-2, B-3, B-4, and C-1 in the HiBiT assays. Asterisks (*) indicate examples for which the data shown represents an average of n≥3.

[2] = molecular target: T2, IKZF2 (Homo sapiens, UniProt Q96SW2+Q9UKS7); test: HEK293 HiBiT in vitro degradation of IKZF2; set-up: expressed in transfected cells; conditions: for Dmax / IKZF2 Dmax: maximum degradation at the highest concentration tested; for DC50: 18-24 hr incubation, normalized to DMSO control, read-out: IKZF2 EC50
In short: (§1)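 EC50 and Dmax come from Nano-Glo lytic luminescence after 18-24 hr compound treatment at 37° C. Reporter cells were single-copy Flp-In T-REx HEK293 pools carrying HiBiT fused to the C-terminus of IKZF1, IKZF2 or SALL4. Expression was induced overnight beforehand with […] doxycycline.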
Target sequence in this assay (Q9UKS7 1-500 isoform Q9UKS7-2): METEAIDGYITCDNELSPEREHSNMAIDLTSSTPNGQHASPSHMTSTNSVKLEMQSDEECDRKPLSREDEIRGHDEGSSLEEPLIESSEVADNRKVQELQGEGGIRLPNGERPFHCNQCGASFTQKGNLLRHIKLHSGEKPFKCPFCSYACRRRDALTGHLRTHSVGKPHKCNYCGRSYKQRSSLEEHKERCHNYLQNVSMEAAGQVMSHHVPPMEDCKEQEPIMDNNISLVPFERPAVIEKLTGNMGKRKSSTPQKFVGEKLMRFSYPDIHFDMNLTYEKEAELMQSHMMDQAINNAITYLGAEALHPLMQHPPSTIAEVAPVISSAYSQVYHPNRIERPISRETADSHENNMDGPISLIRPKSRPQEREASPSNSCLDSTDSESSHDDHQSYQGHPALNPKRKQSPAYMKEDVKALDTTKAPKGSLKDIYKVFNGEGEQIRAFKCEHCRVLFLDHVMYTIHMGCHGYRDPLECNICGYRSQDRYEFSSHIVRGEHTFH
Target sequence in this assay (Q96SW2 whole entry, the tested form may be a part): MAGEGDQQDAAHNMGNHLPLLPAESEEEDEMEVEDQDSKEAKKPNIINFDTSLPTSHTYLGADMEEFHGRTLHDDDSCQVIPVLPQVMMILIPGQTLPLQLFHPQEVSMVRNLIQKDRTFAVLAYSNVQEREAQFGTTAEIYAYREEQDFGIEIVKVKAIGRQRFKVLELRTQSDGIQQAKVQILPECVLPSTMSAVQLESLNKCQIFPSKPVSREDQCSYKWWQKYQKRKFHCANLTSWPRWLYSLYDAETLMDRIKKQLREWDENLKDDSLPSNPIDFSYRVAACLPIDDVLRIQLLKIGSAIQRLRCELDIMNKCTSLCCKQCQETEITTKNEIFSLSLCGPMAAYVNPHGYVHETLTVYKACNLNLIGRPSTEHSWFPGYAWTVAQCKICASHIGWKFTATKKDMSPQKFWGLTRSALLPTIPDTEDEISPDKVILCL
Target sequence in this assay (Q16531 whole entry partner, the tested form may be a part): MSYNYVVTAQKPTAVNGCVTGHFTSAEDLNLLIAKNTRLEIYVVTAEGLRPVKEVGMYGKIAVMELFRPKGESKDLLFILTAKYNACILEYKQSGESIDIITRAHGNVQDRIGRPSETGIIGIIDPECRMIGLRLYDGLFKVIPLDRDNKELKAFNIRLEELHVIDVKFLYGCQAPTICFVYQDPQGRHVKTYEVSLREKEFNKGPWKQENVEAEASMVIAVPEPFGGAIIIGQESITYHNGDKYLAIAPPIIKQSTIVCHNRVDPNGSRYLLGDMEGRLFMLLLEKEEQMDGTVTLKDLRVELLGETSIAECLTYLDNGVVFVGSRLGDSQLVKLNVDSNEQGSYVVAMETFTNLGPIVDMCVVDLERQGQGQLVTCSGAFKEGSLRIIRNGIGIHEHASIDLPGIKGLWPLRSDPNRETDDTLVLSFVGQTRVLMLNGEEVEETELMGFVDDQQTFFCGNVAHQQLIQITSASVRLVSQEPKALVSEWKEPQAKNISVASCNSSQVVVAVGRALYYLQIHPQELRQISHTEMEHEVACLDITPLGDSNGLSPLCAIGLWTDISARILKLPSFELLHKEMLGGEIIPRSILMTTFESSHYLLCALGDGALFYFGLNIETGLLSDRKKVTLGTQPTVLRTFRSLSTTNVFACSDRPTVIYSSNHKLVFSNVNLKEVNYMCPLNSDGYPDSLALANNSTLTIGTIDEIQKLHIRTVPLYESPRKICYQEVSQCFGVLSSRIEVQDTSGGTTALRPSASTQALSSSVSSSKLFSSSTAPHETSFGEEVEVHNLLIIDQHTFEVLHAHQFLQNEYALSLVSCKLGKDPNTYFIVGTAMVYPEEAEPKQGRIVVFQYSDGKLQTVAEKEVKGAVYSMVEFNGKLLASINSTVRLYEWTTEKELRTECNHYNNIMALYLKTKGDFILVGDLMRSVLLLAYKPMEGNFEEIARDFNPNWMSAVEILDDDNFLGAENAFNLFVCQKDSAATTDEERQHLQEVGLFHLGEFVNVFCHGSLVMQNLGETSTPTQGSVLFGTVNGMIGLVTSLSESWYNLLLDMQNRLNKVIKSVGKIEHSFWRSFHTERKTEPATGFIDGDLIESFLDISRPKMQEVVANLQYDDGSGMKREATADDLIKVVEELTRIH

[3] = molecular target: T3, IKZF1 (Homo sapiens, UniProt Q13422+Q96SW2); test: HEK293 HiBiT in vitro degradation of IKZF1; conditions: for DC50: 18-24 hr incubation, normalized to DMSO control, read-out: IKZF1 EC50; for Dmax: HEK293, HEK293 HiBiT
T3 construct: expressed in transfected cells
T3 sequence (Q13422 whole entry): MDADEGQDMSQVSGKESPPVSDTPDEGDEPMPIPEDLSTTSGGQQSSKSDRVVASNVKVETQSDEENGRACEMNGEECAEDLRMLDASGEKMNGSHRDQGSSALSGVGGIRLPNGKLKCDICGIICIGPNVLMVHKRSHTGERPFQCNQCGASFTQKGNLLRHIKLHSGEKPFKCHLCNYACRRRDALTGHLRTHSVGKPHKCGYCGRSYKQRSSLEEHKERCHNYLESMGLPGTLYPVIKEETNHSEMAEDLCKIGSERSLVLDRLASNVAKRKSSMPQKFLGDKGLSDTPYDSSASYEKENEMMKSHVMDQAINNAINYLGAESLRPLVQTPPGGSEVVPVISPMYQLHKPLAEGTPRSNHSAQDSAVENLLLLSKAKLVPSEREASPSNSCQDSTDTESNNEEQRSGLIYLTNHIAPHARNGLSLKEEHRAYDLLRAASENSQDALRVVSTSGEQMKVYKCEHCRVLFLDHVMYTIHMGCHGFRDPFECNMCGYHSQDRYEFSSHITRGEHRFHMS
T3 sequence (Q96SW2 whole entry): as the sequence (Q96SW2 whole entry, the tested form may be a part) above
T3 sequence (Q16531 whole entry partner): as the sequence (Q16531 whole entry partner, the tested form may be a part) above
In short: as §1

[4] = molecular target: T2, IKZF2; test: Human whole blood IKZF2 degradation (flow cytometry, CD4/CD25/Foxp3+ Treg cells); set-up: endogenous in cells; conditions: 24 hrs incubation, IKZF2 MFI in CD4/CD25/Foxp3+ Treg cells, flow cytometry; for DC50: read-out: IKZF2 EC50
In short: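 Fresh healthy-donor human whole blood stimulated with CD3/CD28 activator and serially diluted compound for 24 hrs at 37° C. IKZF2 MFI in CD4/CD25/Foxp3+ Tregs (IKZF1 MFI in CD4+ T cells) measured by flow cytometry after RBC lysis, fixation, permeabilization. EC50 and Dmax versus DMSO wells.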
Target sequence in this assay (Q9UKS7 whole entry, the tested form may be a part): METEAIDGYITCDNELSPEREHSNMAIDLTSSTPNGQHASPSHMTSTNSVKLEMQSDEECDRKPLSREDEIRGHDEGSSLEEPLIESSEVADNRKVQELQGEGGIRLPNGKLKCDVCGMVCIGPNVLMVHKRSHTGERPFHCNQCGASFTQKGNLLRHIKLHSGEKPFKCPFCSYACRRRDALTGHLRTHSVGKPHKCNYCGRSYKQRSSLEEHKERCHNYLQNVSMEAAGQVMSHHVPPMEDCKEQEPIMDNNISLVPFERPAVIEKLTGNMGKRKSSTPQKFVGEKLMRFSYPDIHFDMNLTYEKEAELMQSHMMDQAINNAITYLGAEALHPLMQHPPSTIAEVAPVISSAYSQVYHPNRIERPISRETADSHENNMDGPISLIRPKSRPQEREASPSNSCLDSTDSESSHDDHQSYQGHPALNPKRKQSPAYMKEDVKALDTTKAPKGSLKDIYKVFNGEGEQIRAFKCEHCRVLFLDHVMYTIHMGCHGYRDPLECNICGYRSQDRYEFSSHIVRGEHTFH
Target sequence in this assay (Q96SW2 whole entry, the tested form may be a part): as the sequence (Q96SW2 whole entry, the tested form may be a part) above
Target sequence in this assay (Q16531 whole entry partner, the tested form may be a part): as the sequence (Q16531 whole entry partner, the tested form may be a part) above

[5] = maximum degradation at the highest concentration tested

T1 sequence (Q9UJQ4 whole entry): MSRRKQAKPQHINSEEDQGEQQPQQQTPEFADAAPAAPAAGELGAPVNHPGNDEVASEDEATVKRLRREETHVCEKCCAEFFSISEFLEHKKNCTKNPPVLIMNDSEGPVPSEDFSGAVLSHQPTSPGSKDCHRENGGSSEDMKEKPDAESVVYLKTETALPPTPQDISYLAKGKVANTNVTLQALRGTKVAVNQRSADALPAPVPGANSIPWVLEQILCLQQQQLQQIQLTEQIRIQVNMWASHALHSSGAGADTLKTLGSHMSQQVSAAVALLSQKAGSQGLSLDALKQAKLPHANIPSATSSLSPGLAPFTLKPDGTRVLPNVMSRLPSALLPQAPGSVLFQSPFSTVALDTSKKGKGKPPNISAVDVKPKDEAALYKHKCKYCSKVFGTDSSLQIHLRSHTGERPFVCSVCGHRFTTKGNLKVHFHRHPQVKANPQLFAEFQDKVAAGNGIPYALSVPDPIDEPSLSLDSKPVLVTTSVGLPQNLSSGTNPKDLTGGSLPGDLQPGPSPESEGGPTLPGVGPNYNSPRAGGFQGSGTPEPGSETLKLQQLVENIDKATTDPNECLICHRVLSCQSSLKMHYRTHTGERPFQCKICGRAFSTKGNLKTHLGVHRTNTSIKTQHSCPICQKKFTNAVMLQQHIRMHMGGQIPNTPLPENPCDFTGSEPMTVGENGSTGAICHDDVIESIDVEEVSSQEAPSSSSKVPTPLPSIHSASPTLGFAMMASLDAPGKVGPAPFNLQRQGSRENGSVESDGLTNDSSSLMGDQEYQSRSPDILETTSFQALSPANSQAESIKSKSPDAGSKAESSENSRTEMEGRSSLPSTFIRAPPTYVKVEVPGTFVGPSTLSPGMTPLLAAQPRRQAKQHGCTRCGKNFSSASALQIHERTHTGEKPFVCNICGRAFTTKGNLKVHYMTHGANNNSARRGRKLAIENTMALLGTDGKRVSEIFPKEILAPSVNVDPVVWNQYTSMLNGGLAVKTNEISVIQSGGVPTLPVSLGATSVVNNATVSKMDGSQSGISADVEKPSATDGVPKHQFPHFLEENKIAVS
T1 sequence (Q96SW2 whole entry): as the sequence (Q96SW2 whole entry, the tested form may be a part) above
T1 sequence (Q16531 whole entry partner): as the sequence (Q16531 whole entry partner, the tested form may be a part) above

Row | Structure (SMILES) | DC50 [1] | Dmax ([2]; HEK293, HEK293 HiBiT) | DC50 ([2]; HEK293 HiBiT) | DC50 ([3]; HEK293 HiBiT) | Dmax [3, 5] | Dmax [4] | DC50 [4] | IKZF2 Dmax ([2]; HEK293 HiBiT) | IKZF1 Dmax ([3]; HEK293 HiBiT, maximum degradation at the highest concentration tested) | Dmax [1, 5] | Dmax ([2]; HEK293 HiBiT)
1 | O=C1CCC(N2Cc3c(ccc(C[C@H]4OCCC[C@@H]4NC4CCN(CC(F)(F)F)CC4)c3F)C2=O)C(=O)N1 (some centres unmarked) [Example 308] | > 10000 nM | 96% | 12 nM | > 1000 nM | – | – | – | – | – | – | –
2 | O=C1CC[C@H](N2Cc3c(ccc(C[C@H]4CCCC[C@@H]4NC4CCC(F)(F)CC4)c3F)C2=O)C(=O)N1 (single isomer, unassigned) [Example 334] | > 10000 nM | 97% | 1 nM | 13 nM | 59% | – | – | – | – | – | –
3 | O=C1CCC(N2Cc3cc(C[C@H]4CCCC[C@@H]4NC4CCc5c(C(F)(F)F)n[nH]c5C4)ccc3C2=O)C(=O)N1 (single isomer, unassigned) [Example 363] | > 10000 nM | – | 1 nM | 50 nM | – | – | – | 97% | 56% | – | –
4 | O=C1CCC(N2Cc3cc(C[C@H]4CCCC[C@@H]4NC4CCc5[nH]nc(C(F)(F)F)c5C4)ccc3C2=O)C(=O)N1 (some centres unmarked) [Example 352] | 3100 nM | 99% | 3 nM | 323 nM | 47% | – | – | – | – | 47% | –
5 | O=C1CCC(N2Cc3c(ccc(C[C@H]4OCCC[C@@H]4NC4CCC5(CC4)CC5(F)F)c3F)C2=O)C(=O)N1 (single isomer, unassigned) [Example 364] | > 10000 nM | 96% | 3 nM | 45 nM | 37% | – | – | – | – | – | –
6 | [2H]C1(N[C@H]2CCCC[C@@H]2Cc2ccc3c(c2F)CN(C2CCC(=O)NC2=O)C3=O)CCC(F)(F)CC1 (some centres unmarked) [Example 209] | > 10000 nM | 97% | 1 nM | 35 nM | 62% | – | – | – | – | – | –
7 | Cn1ncc2c1CCC(N[C@H]1CCCC[C@@H]1Cc1ccc3c(c1)CN(C1CCC(=O)NC1=O)C3=O)C2 (some centres unmarked) [Example 377] | > 10000 nM | 97% | 5 nM | 73 nM | 48% | – | – | – | – | – | –
8 | O=C1CCC(N2Cc3cc(C[C@H]4CCCC[C@@H]4NC4CCc5c(C(F)(F)F)n[nH]c5C4)ccc3C2=O)C(=O)N1 (single isomer, unassigned) [Example 362] | > 10000 nM | 97% | 11 nM | 114 nM | 39% | – | – | – | – | – | –
9 | O=C1CC[C@@H](N2Cc3c(ccc(C[C@H]4CCCC[C@@H]4NC4CCC(F)(F)CC4)c3F)C2=O)C(=O)N1 (single isomer, unassigned) [Example 335] | > 10000 nM | 97% | 1 nM | 16 nM | 62% | – | – | – | – | – | –
10 | CC1(C)CC(N[C@H]2CCCO[C@@H]2Cc2ccc3c(c2F)CN(C2CCC(=O)NC2=O)C3=O)CCO1 (some centres unmarked) [Example 222] | – | 96% | 18 nM | > 1000 nM | – | 95% | 6 nM | – | – | – | –
11 | O=C1CCC(N2Cc3c(ccc(C[C@H]4OCCC[C@@H]4NC4CCN(CC(F)F)CC4)c3F)C2=O)C(=O)N1 (some centres unmarked) [Example 309] | > 10000 nM | – | 16 nM | > 1000 nM | – | – | – | – | – | – | 96%

Second part, led by results:

Row | DC50 [1] | Dmax ([2]; HEK293, HEK293 HiBiT) | DC50 ([2]; HEK293 HiBiT) | DC50 ([3]; HEK293 HiBiT) | Dmax [3, 5] | Dmax [4] | DC50 [4] | IKZF2 Dmax ([2]; HEK293 HiBiT) | IKZF1 Dmax ([3]; HEK293 HiBiT, maximum degradation at the highest concentration tested) | Dmax [1, 5] | Structure (SMILES) | Dmax ([2]; HEK293 HiBiT)
12 | > 10000 nM | 98% | 4 nM | 138 nM | 27% | 96% | 6 nM | – | – | – | O=C1CCC(N2Cc3c(ccc(C[C@H]4OCCC[C@@H]4N[C@H]4CC[C@@H](F)CC4)c3F)C2=O)C(=O)N1 (single isomer, unassigned) [Example 290] | –
13 | > 10000 nM | 95% | 7 nM | > 1000 nM | – | – | – | – | – | – | COC1(C)CCC(N[C@H]2CCCO[C@@H]2Cc2ccc3c(c2F)CN(C2CCC(=O)NC2=O)C3=O)CC1 (single isomer, unassigned) [Example 316] | –
14 | > 10000 nM | – | 3 nM | 535 nM | – | – | – | 96% | – | – | O=C1CCC(N2Cc3c(ccc(C[C@H]4OCCC[C@@H]4NC4CCC(OC(F)F)CC4)c3F)C2=O)C(=O)N1 (single isomer, unassigned) [Example 327] | –
15 | > 10000 nM | 95% | 3 nM | 16 nM | 71% | – | – | – | – | – | CC1CC[C@H](NC2CCC(F)(F)CC2)[C@@H](Cc2ccc3c(c2)CN(C2CCC(=O)NC2=O)C3=O)C1 (single isomer, unassigned) [Example 324] | –
16 | > 10000 nM | 97% | 1 nM | 79 nM | 42% | – | – | – | – | – | O=C1CCC(N2Cc3cc(C[C@H]4C[C@H](F)CC[C@@H]4NC4CCC(F)(F)CC4)ccc3C2=O)C(=O)N1 (some centres unmarked) [Example 169] | –
17 | > 10000 nM | 94% | 3 nM | 37 nM | 28% | – | – | – | – | – | O=C1CC[C@H](N2Cc3c(ccc(C[C@H]4OCCC[C@@H]4N[C@H]4CC[C@H](C(F)F)CC4)c3F)C2=O)C(=O)N1 (single isomer, unassigned) [Example 330] | –
18 | > 10000 nM | – | 3 nM | > 1000 nM | – | – | – | 96% | – | – | COCC1CCC(N[C@H]2CCCO[C@@H]2Cc2ccc3c(c2F)CN(C2CCC(=O)NC2=O)C3=O)CC1 (single isomer, unassigned) [Example 265] | –
19 | > 10000 nM | 95% | 6 nM | > 1000 nM | – | – | – | – | – | – | O=C1CC[C@H](N2Cc3c(ccc(C[C@H]4OCCC[C@@H]4NC4CCC(F)(F)CC4)c3F)C2=O)C(=O)N1 (single isomer, unassigned) [Example 332] | –
20 | > 10000 nM | 94% | 9 nM | 210 nM | – | – | – | – | – | – | O=C1CC[C@@H](N2Cc3c(ccc(C[C@H]4OCCC[C@@H]4NC4CCC(F)(F)CC4)c3F)C2=O)C(=O)N1 (single isomer, unassigned) [Example 333] | –
21 | > 10000 nM | – | 15 nM | > 1000 nM | – | – | – | 87% | – | – | O=C1CCC(N2Cc3cc(C[C@H]4OCCC[C@@H]4NC4CCC(F)CC4)ccc3C2=O)C(=O)N1 (single isomer, unassigned) [Example 367] | –
22 | > 10000 nM | 93% | 6 nM | 41 nM | 51% | – | – | – | – | – | CO[C@H]1CC[C@H](Cc2ccc3c(c2)CN(C2CCC(=O)NC2=O)C3=O)[C@@H](NC2CCC(F)(F)CC2)C1 (some centres unmarked) [Example 344] | –
23 | > 10000 nM | 85% | 17 nM | > 1000 nM | – | – | – | – | – | – | O=C1CCC(N2Cc3cc(C[C@H]4OCCC[C@@H]4NC4CCC(F)CC4)ccc3C2=O)C(=O)N1 (single isomer, unassigned) [Example 366] | –
24 | – | 98% | 1 nM | 213 nM | 35% | 98% | 2 nM | – | – | – | COCC1CCC(N[C@H]2CCCC[C@@H]2Cc2ccc3c(c2)CN(C2CCC(=O)NC2=O)C3=O)CC1 (single isomer, unassigned) [Example 251] | –
25 | > 10000 nM | 96% | 4 nM | 448 nM | – | – | – | – | – | – | O=C1CC[C@@H](N2Cc3c(ccc(C[C@H]4OCCC[C@@H]4N[C@H]4CC[C@H](C(F)F)CC4)c3F)C2=O)C(=O)N1 (single isomer, unassigned) [Example 331] | –
